Here are results for four compounds from ChEMBL document CHEMBL1201862, “PubChem BioAssay data set” (2004).

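Results reflect a 48-hour exposure of cells in 96-well plates to compound at five concentrations. GI50 marks 50% less growth.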 Calls of active or inactive are those of the source. Rule as the data show it: active = GI50 up to about 1.1 µM and inactive = higher. Bounds are passed on as bounds.

Test systems include A498; A549; CCRF-CEM; COLO 205; HCC 2998; HCT-15; HL-60; IGROV-1; MDA-N; Malme-3M; NCI-H460; NCI-H522; OVCAR-3; OVCAR-8; SF-295; SK-MEL-5; SK-OV-3; SW-620; TK-10; U-251.
Test in all cases: NCI-60 cell line screen, 48 h

In the case of `COc1ccc2c(c1OC)C(C(Cl)(Cl)Cl)N1CCc3cc4c(cc3C1=C2)OCO4` (stereo not given), the GI50 in the assay on A498 was 67.6 µM (inactive); in the assay on A549, 35.6 µM (inactive); with CCRF-CEM, 6.71 µM (inactive); with COLO 205, 5.45 µM (inactive); in the assay with HCC 2998, 10.8 µM (inactive); with HCT-15, 33.3 µM. The GI50 in the assay with HL-60 is 15.2 µM (inactive); in the assay on IGROV-1, 25.5 µM (inactive); in the assay with MDA-N, 15.4 µM (inactive); with Malme-3M it was 11.5 µM (inactive); with NCI-H460 it was 10.7 µM (inactive); in the assay with NCI-H522, 13.9 µM (inactive). Moreover, the GI50 with OVCAR-3 was 7.43 µM (inactive); in the assay on OVCAR-8, 8.11 µM (inactive); with SF-295 it was 9.31 µM (inactive); with SK-MEL-5, 3.94 µM (inactive); in the assay on SK-OV-3, 23.9 µM (inactive); in the assay on SW-620 it was 21.2 µM (inactive). In addition, the GI50 in the assay on TK-10 is 27 µM (inactive); in the assay with U-251 it was 3.69 µM (inactive).

As for `CC1=C(C)C(=O)OC(C(C)(O)C2(O)CC3OC34C3CC(O)C56OC5C=CC(=O)C6(C)C3CCC42C)C1` (stereo not given), the GI50 in the assay on A498 is 2.73 µM (inactive); with A549, 3.33 µM (inactive); in the assay with CCRF-CEM it was 0.851 µM (active); in the assay on COLO 205, 1.5 µM (inactive); with HCC 2998, 1.26 µM (inactive); in the assay on HCT-15, 0.791 µM. The GI50 in the assay with HL-60 was 0.264 µM (active); in the assay on IGROV-1 it was 1.72 µM (inactive); in the assay on MDA-N it was 1.61 µM (inactive); in the assay with Malme-3M it was 0.762 µM (active); in the assay on NCI-H460, 1.45 µM (inactive); in the assay with NCI-H522, 0.361 µM (active). The GI50 in the assay with OVCAR-3 was 1.19 µM (inactive); in the assay on OVCAR-8, 1.85 µM (inactive); in the assay with SF-295 it was 3.48 µM (inactive); in the assay with SK-MEL-5, 1.67 µM (inactive); in the assay with SK-OV-3, 3.9 µM (inactive); in the assay with SW-620, 3.03 µM (inactive). For the same compound, the GI50 in the assay with TK-10 is 1.5 µM (inactive); in the assay on U-251 it was 1.76 µM (inactive).

Take `COc1cccc(C2c3cc4c(cc3OC(Nc3ccccc3)C2C)OCO4)c1O` (stereo not given): the GI50 was 7.82 µM (inactive) in the assay with A498; 4.95 µM (inactive) with A549; 2.58 µM (inactive) with CCRF-CEM; 4.3 µM (inactive) with COLO 205; 11.7 µM (inactive) in the assay on HCC 2998; 5.62 µM with HCT-15. Moreover, the GI50 is 9.93 µM (inactive) in the assay with HL-60; 8.95 µM (inactive) in the assay on IGROV-1; 2.42 µM (inactive) with MDA-N; 7.24 µM (inactive) with Malme-3M; 4.97 µM (inactive) in the assay on NCI-H460; 4.4 µM (inactive) with NCI-H522. Moreover, the GI50 in the assay on OVCAR-3 is 9.18 µM (inactive); in the assay with OVCAR-8, 12.9 µM (inactive); in the assay on SF-295, 5.25 µM (inactive); in the assay with SK-MEL-5, 5.12 µM (inactive); in the assay on SK-OV-3, 10.3 µM (inactive); in the assay with SW-620, 4.88 µM (inactive). For the same compound, the figures for the GI50 with TK-10 and with U-251 were 15.8 µM (inactive) and 5.7 µM (inactive), respectively.

Take `CCOC(=O)c1sc2c(c1OC(=O)c1ccco1)c(=O)n(-c1ccccc1)c(=S)n2-c1ccccc1`: the GI50 in the assay with A498 was 23 µM (inactive); in the assay with A549, 38.6 µM (inactive); in the assay on CCRF-CEM, 35.8 µM (inactive); in the assay with COLO 205 it was 19.1 µM (inactive); in the assay with HCC 2998, 31.4 µM (inactive); in the assay with HCT-15, 32.1 µM. Moreover, the GI50 with HL-60 was 24.9 µM (inactive); in the assay on IGROV-1, 17.9 µM (inactive); with MDA-N, 41.7 µM (inactive); in the assay with Malme-3M, 15.8 µM (inactive); with NCI-H460, 17.7 µM (inactive); in the assay with NCI-H522, > 100 µM (inactive). For the same compound, the GI50 in the assay on OVCAR-3 was 26.5 µM (inactive); in the assay with OVCAR-8, 26.1 µM (inactive); in the assay on SF-295 it was > 100 µM (inactive); with SK-MEL-5, 15.8 µM (inactive); in the assay on SK-OV-3, > 100 µM (inactive); in the assay with SW-620 it was 42.1 µM (inactive). For the same compound, the GI50 in the assay on TK-10 was 39.1 µM (inactive); in the assay on U-251 it was 35.5 µM (inactive).
